Data set [1] deals with SARS Coronavirus 2 recombinant with NanoLuc (SARS-CoV2-NLuc) in A549-hACE2 cells. The data set is described as follows: organism not typed. The data set is classed as cell-based. The conditions noted are these: 48 h; read-out: SARS-CoV2 EC50.
Data set [2] has as its system Respiratory syncytial virus recombinant with luciferase (RSV-Luc5) in HEp-2 cells. The data set is described as follows: microbe, parasite or virus in culture. The format is cell-based. The conditions noted are these: human respiratory syncytial virus, HEp-2, 72 h, read-out: RSV Hep2 EC50.
Data set [3] deals with Respiratory syncytial virus recombinant with luciferase (RSV-Luc5) in Normal Human Bronchial Epithelial (NHBE) cells. Kind of data set: microbe, parasite or virus in culture. The conditions noted are these: 72 h, read-out: RSV NHBE EC50. The data set is classed as cell-based.
Data set [4] is described as follows: CC50 MT4 cytotoxicity (Cell-Titer Glo). The data set is classed as cell-based. The conditions noted are these: human. The procedure:
Cytotoxicity of the compounds was determined in uninfected cells using the cell viability reagent in a similar fashion as described before for other cell types (Cihlar et al., Antimicrob Agents Chemother. 2008, 52(2):655-65). HEp-2 (1.5×10^3 cells/well) and MT-4 (2×10^3 cells/well) cells were plated in 384-well plates and incubated with the appropriate medium containing 3-fold serially diluted compound ranging from 15 nM to 100,000 nM. Cells were cultured for 4-5 days at 37° C. Following the incubation, the cells were allowed to equilibrate to 25° C., and cell viability was determined by adding Cell-Titer Glo viability reagent. The mixture was incubated for 10 min, and the luminescence signal was quantified using an Envision plate reader. Untreated cell and cells treated at 2 μM puromycin (Sigma, St. Louis, MO) serve as 100% and 0% cell viability control, respectively. The percent of cell viability was calculated for each tested compound concentration relative to the 0% and 100% controls and the CCso value was determined by non-linear regression as a compound concentration reducing the cell viability by 50%.

The nature of the next data set: Plasma stability. The format is in vitro ADME. The arrangement: unit not given here. The conditions noted are these: 37° C., 2 μM substrate. How it is done:
At 0.05, 0.5, 1, 2, 3 and 4 hr, […] aliquots of the reaction mixture were transferred to plates containing […] of IS/Q quenching solution. After quenching, the plates were centrifuged at 3000 g for 30 minutes, and 150 μL supernatant was diluted with 150 μL water. Aliquots ([…]) of the diluted supernatant were analyzed on a Thermo Q-Exactive mass spectrometer as described below.
Mobile phase A consisted of 0.1% (v/v) formic acid in water. Mobile phase B consisted of 0.1% (v/v) formic acid in acetonitrile. Elution of analytes was achieved by a series of linear gradients of acetonitrile in water containing 0.1°(v/v) formic acid. The mass spectrometer was calibrated on a weekly basis and mass tolerance of 5 ppm was used.

The nature of data set [5]: GI S9 stability - no PMSF. The data set is classed as in vitro ADME. The conditions noted are these: pH 7.4; human intestinal S9, PMSF-free; read-out: GIS9-HUMAN-NoPMSF T1/2. How it is done: Duplicate aliquots of test compound or positive control substrate (GS-7340) were added to S9 stock diluted with 100 mM phosphate buffered saline, pH 7.4, to obtain a protein concentration of 1.0 mg/mL. The S9 metabolic reactions were initiated by the addition of the substrates to the S9 reaction mixture to a final concentration of 2 μM. At 0, 10, 20, 30, 60 and 120 min, […] aliquots of the reaction mixture were transferred to plates containing […] of IS/Q solution. After quenching, the plates were centrifuged at 3000 g for 30 minutes, and 150 μL aliquots of each supernatant were diluted with 150 μL water. Aliquots ([…]) of the diluted supernatant were analyzed on a Thermo Q-Exactive mass spectrometer as described below. GI S9 Stability—No phenylmethylsulfonyl fluoride (PMSF): Similar to the procedure described above, test compounds were incubated at 2 μM with 1 mg/mL PMSF-free Intestinal S9 fractions. Samples are removed at 6 time points over the course of a 120 min experiment and the parent compound disappreance and reference compound A formation is determined by mass spectrometry.
Example K: Liquid Chromatography/Mass Spectroscopy Methods for S9 and Plasma Stability
Quantification of test compounds, Reference Compound A (S9 stability assay nucleoside metabolite), and controls was performed by analyte/internal standard peak area ratio (PAR) values measured on a Thermo Q-Exactive mass spectrometer coupled to a Dionex UltiMate 3000 HPLC with a Leap Technologies HTC PAL autosampler. The column used for analysis of test compounds and Reference Compound A was a Waters Acquity BEH C18 ([…] particle size, 2.1′50 mm). The column used for control (GS-7340) was a Thermo Hypersil GOLD ([…] particle size, 2.1′50 mm). Mobile phase A consisted of 0.1% (v/v) formic acid in water. Mobile phase B consisted of 0.1% (v/v) formic acid in acetonitrile. Elution of analytes was achieved by a series of linear gradients of acetonitrile in water containing 0.1°(v/v) formic acid. The mass spectrometer was calibrated on a weekly basis and mass tolerance of 5 ppm was used.

Data set [6] deals with Caco-2 cells (clone C2BBe1). Kind of data set: CACO-2 permeability. The format is in vitro ADME. Further details: unit not given here. The conditions noted are these: for DM Caco2 A to B: apical to basolateral, donor pH 6.5, receiver pH 7.4; for DM Caco2 B to A: basolateral to apical. How it is done: Pre-plated Caco-2 cells (clone C2BBel) were obtained from Sigma-Aldrich, Inc. (Atlanta, GA). Cell monolayers were grown to confluence on collagen-coated, microporous, polycarbonate membranes in 24-well transwell plates for 21 days. The permeability assay buffer in donor wells was Hanks' balanced salt solution (HBSS) containing 10 mM HEPES and 15 mM glucose at a pH of 6.5 containing 200 μM BNPP. The receiver wells used HBSS buffer containing 10 mM HEPES and 15 mM glucose at a pH of 7.4 and supplemented with 1°% BSA. After an initial equilibration with transport buffer, TEER values were read to test membrane integrity. The experiment was started by the addition of buffers containing test compounds, 200 μl and 1000 μl in the apical and basolateral chamber, respectively. At 0- and 2-hour post dose, 10 μL was sampled from donor compartment and was immediately diluted in 190 μL of 20% methanol. At 1 and 2 hours post dose, 100 μl of solution was taken from the receiver compartments and was immediately diluted in 100 μl of 20% methanol. Removed buffer was replaced with fresh buffer and a correction was applied to all calculations for the removed material. Each compound was tested in 2 separate replicate wells for each condition. All samples were then extracted with 400 μl 100% acetonitrile with internal standard to precipitate protein. Cells were dosed on the apical or basolateral side to determine forward (A to B) and reverse (B to A) permeability. To test for non-specific binding and compound instability, the total amount of drug was quantitated at the end of the experiment and compared to the material present in the original dosing solution as a percent recovery. […] Samples were analyzed by LC-MS/MS.

For the compound `CC(C)COC(=O)OC[C@H]1O[C@@](C#N)(c2ccc3c(N)ncnn23)[C@@H]2OC(=O)O[C@@H]21` [Compound 17, ((3aR,4R,6R,6aR)-6-(4-aminopyrrolo[2,1-f][1,2,4]triazin-7-yl)-6-cyano-2-oxotetrahydrofuro[3,4-d][1,3]dioxol-4-yl)methyl isobutyl carbonate], the values for the EC50 in data set [1], in data set [2] and in data set [3] were 814 nM, 412 nM and 1900 nM, respectively. Also, the CC50 (in general, the concentration giving 50% cytotoxicity) in data set [4] was over 50 µM.

For the compound `CC(C)(C)COC(=O)OC[C@H]1O[C@@](C#N)(c2ccc3c(=N)n(COP(=O)(O)OCc4ccccc4)cnn23)[C@H](O)[C@@H]1O` [Compound 18, ((2R,3S,4R,5R)-5-(3-((((benzyloxy)(hydroxy)phosphoryl)oxy)methyl)-4-imino-3,4-dihydropyrrolo[2,1-f][1,2,4]triazin-7-yl)-5-cyano-3,4-dihydroxytetrahydrofuran-2-yl)methyl neopentyl carbonate], the EC50 (commonly the midpoint of the concentration-response curve) was determined as 12400 nM in data set [1], 2870 nM in data set [2] and 12100 nM in data set [3]. Also, the cytotoxic concentration (CC50) in data set [4] is over 50 µM.

On to `N#C[C@@]1(c2ccc3c(N)ncnn23)O[C@H](COC(=O)OC2CNC2)[C@@H](O)[C@H]1O` [Compound 20, ((2R,3S,4R,5R)-5-(4-aminopyrrolo[2,1-f][1,2,4]triazin-7-yl)-5-cyano-3,4-dihydroxytetrahydrofuran-2-yl)methyl azetidin-3-yl carbonate], for which the concentration giving a half-maximal response (EC50) in data set [1] amounted to 8980 nM; in data set [2] it was 2020 nM; in data set [3], 4350 nM. Also, the cytotoxic concentration (CC50) in data set [4] is over 50 µM.

As to `CCCCCOC(=O)OC[C@H]1O[C@@](C#N)(c2ccc3c(N)ncnn23)[C@H](O)[C@@H]1O` [Compound 27, ((2R,3S,4R,5R)-5-(4-aminopyrrolo[2,1-f][1,2,4]triazin-7-yl)-5-cyano-3,4-dihydroxytetrahydrofuran-2-yl)methyl pentyl carbonate], the results for the half-maximal effective concentration (EC50) in data set [1], in data set [2] and in data set [3] were 658 nM, 145 nM and 1010 nM, respectively. In data set [4], the 50% cytotoxic concentration (CC50) was over 50 µM.

For `N#C[C@@]1(c2ccc3c(N)ncnn23)O[C@H](COC(=O)OCC2CCCC2)[C@@H](O)[C@H]1O` [Compound 85, ((2R,3S,4R,5R)-5-(4-aminopyrrolo[2,1-f][1,2,4]triazin-7-yl)-5-cyano-3,4-dihydroxytetrahydrofuran-2-yl)methyl (cyclopentylmethyl) carbonate], the values for the EC50 in data set [1], in data set [2] and in data set [3] were 417 nM, 166 nM and 776 nM, respectively. In addition, in “Plasma stability”, the “STA Human Plasma 37” value worked out at 38.6. The half-life at 2 µM in data set [5] was 0.621 min. In data set [4], this compound came in with a CC50 of over 50 µM.

On to `CC(C)OC(=O)OC[C@H]1O[C@@](C#N)(c2ccc3c(N)ncnn23)[C@@H]2OC(c3ccccc3)O[C@@H]21` (stereo partly drawn) [Compound 100, [(3aR,4R,6R,6aR)-4-(4-aminopyrrolo[2,1-f][1,2,4]triazin-7-yl)-4-cyano-2-phenyl-6,6a-dihydro-3aH-furo[3,4-d][1,3]dioxol-6-yl]methyl isopropyl carbonate], for which, in data set [6], the “DM Caco2 A to B” value was found to be 11.73 and the “DM Caco2 B to A” value amounted to 22.71. Further, in data set [2], the concentration giving a half-maximal response (EC50) was over 50000 nM. Also, the EC50 in data set [3] was determined as 16000 nM. Moreover, the half-maximal cytotoxic concentration (CC50) in data set [4] is over 50 µM.

For `C=CCCOC(=O)O[C@H]1[C@@H](OC(=O)OCCC=C)[C@](C#N)(c2ccc3c(N)ncnn23)O[C@@H]1COC(=O)OC(C)C` [Compound 136, (2R,3R,4R,5R)-2-(4-aminopyrrolo[2,1-f][1,2,4]triazin-7-yl)-2-cyano-5-(((isopropoxycarbonyl)oxy)methyl)tetrahydrofuran-3,4-diyl di(but-3-en-1-yl) bis(carbonate)], the EC50 in data set [1] turned out to be 4700 nM; in data set [3] it was 2030 nM. Besides, the “DM Caco2 A to B” value in data set [6] amounted to 4.33. In addition, the “DM Caco2 B to A” value in data set [6] is 5.7. Besides, the “STA Human Plasma 37” value in the data set “Plasma stability” turned out to be 463.08. Also, the half-life at 2 µM in data set [5] turned out to be 1.01 min. The compound also gave a CC50 in data set [4] of over 50 µM.

The values above are taken from US12448383B2, “Compounds and methods for treatment of viral infections” (priority 2022, dated 2025).
